Laboratory results published in the supplement of paper PMC10307832.

Assays:
Assay in all cases: relative viability (nuclei count vs DMSO), 5 days (fraction); higher = more cells survive
AT-7519 + Lapatinib = compound: O=C(NC1CCNCC1)c1n[nH]cc1NC(=O)c1c(Cl)cccc1Cl [AT-7519] + CS(=O)(=O)CCNCc1ccc(-c2ccc3ncnc(Nc4ccc(OCc5cccc(F)c5)c(Cl)c4)c3c2)o1 [Lapatinib] (partner 2 µM)
Method in brief: (§1)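 Cells from lung cancer lines were seeded into 1536-well plates and, one day later, dosed by pin tool. Treatments were either a single drug or a fixed dose of an anchor drug with five library-drug doses (not always all listed) in √10 steps. After 5 days, nuclei were stained in a one-step fixation (final 0.05% Triton X-100, 1% formaldehyde, 1 ug/ml Hoechst) and counted on 4× images, and relative viability is the treated-to-vehicle nuclei ratio, as the median of duplicate plates.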

AT-7519 + Palbociclib = compound: O=C(NC1CCNCC1)c1n[nH]cc1NC(=O)c1c(Cl)cccc1Cl [AT-7519] + CC(=O)c1c(C)c2cnc(Nc3ccc(N4CCNCC4)cn3)nc2n(C2CCCC2)c1=O [Palbociclib] (partner 0.5 µM)
Method in brief: as §1

[1] = compound: C1=CC2=C(C=C(C(=C2N=C1)O)N=NC3=CC4=C(C=C3)C=C(C=C4)S(=O)(=O)O)S(=O)(=O)O + O=C(c1cc(Cc2n[nH]c(=O)c3ccccc23)ccc1F)N1CCN(C(=O)C2CC2)CC1 [Olaparib] (partner 8 µM)
Method in brief: as §1

AT-7519 + Navitoclax = compound: O=C(NC1CCNCC1)c1n[nH]cc1NC(=O)c1c(Cl)cccc1Cl [AT-7519] + CC1(C)CCC(c2ccc(Cl)cc2)=C(CN2CCN(c3ccc(C(=O)NS(=O)(=O)c4ccc(N[C@H](CCN5CCOCC5)CSc5ccccc5)c(S(=O)(=O)C(F)(F)F)c4)cc3)CC2)C1 [Navitoclax] (partner 0.5 µM)
Method in brief: as §1

Question: UMC-11 was tested. Which relative viability (AT-7519 + Lapatinib; first compound 0.01 µM) did it give?
Answer: 1.18

Question: And the relative viability (AT-7519 + Lapatinib; first compound 0.03162 µM)?
Answer: 0.988

Question: And the relative viability (AT-7519 + Lapatinib; first compound 0.3162 µM)?
Answer: 0.519

Question: And the relative viability (AT-7519 + Lapatinib; first compound 1 µM)?
Answer: 0.252

Question: And the relative viability (AT-7519 + Palbociclib; first compound 0.01 µM)?
Answer: 0.319

Question: And the relative viability (AT-7519 + Palbociclib; first compound 0.03162 µM)?
Answer: 0.328

Question: And the relative viability (AT-7519 + Palbociclib; first compound 0.3162 µM)?
Answer: 0.283

Question: And the relative viability (AT-7519 + Palbociclib; first compound 1 µM)?
Answer: 0.25

Question: And the relative viability ([1]; first compound 0.08 µM)?
Answer: 0.36

Question: And the relative viability ([1]; first compound 0.253 µM)?
Answer: 0.381

Question: What about the relative viability ([1]; first compound 0.8 µM) of the same cell line?
Answer: 0.34

Question: And the relative viability ([1]; first compound 2.53 µM)?
Answer: 0.376

Question: What about the relative viability ([1]; first compound 8 µM) of the same cell line?
Answer: 0.317

Question: What about the relative viability (AT-7519 + Navitoclax; first compound 0.01 µM) of the same cell line?
Answer: 0.291

Question: And the relative viability (AT-7519 + Navitoclax; first compound 0.03162 µM)?
Answer: 0.306

Question: What about the relative viability (AT-7519 + Navitoclax; first compound 0.3162 µM) of the same cell line?
Answer: 0.222

Question: What about the relative viability (AT-7519 + Navitoclax; first compound 1 µM) of the same cell line?
Answer: 0.134
